# Assay results taken from article PMC7826463, “Pamiparib dose escalation in Chinese patients with non‐mucinous high‐grade ovarian cancer or advanced triple‐negative breast cancer” (Cancer Medicine, 2020).
# Tested on: Chinese patients with advanced HGOC or TNBC
# Assay: Safety/tolerability (adverse events per NCI-CTCAE v4.03, DLTs) in phase 1 dose escalation (NCT03333915)
# Format: in vivo
# Conditions: for Discontinued treatment: Adverse event: count (percent)
# Excerpt: This phase 1/2, open‐label, multicenter study assessed the safety and antitumor activity of pamiparib in Chinese patients ≥18 years with advanced solid tumors whose disease progressed despite standard therapy or for which there is no standard therapy. Phase 1 was a dose‐escalation study, with a 3 + 3 design, that evaluated the single‐agent safety/tolerability, pharmacokinetic (PK) profile, and preliminary antitumor activity of pamiparib and confirmed the RP2D in Chinese patients (Figure 1). The phase 2 dose‐expansion component of this study is investigating the single‐agent antitumor activity and safety/tolerability of pamiparib.
# In phase 1, patients received pamiparib at 20, 40, and 60 mg BID dose levels. The starting dose for pamiparib (20 mg BID) was selected as one‐third of the RP2D (60 mg BID) and one‐fourth of the MTD (80 mg BID), which were determined in the FIH study. […] Safety evaluations, including dose‐limiting toxicities (DLTs), of ≥3 patients completing one cycle of treatment at a specific dose level were required before proceeding to the next cohort with a higher dose level. Patients could continue the study treatment in 21‐day cycles and subsequent cycles at the discretion of the investigator.
# The primary objective in phase 1 was to evaluate the safety and tolerability of pamiparib. Safety and tolerability endpoint assessments were based on monitoring of treatment‐emergent adverse events (AEs), in addition to vital signs, electrocardiograms, physical examinations, and clinical laboratory results. The incidence and severity of all AEs and incidence of serious AEs were assessed according to the National Cancer Institute‐Common Terminology Criteria for Adverse Events v4.03.
# Approximately 14 to 18 evaluable patients were expected to enroll in the phase 1 part of the study. The safety population included all patients who received ≥1 dose of pamiparib. The PK population included all patients for whom valid pamiparib PK parameters could be estimated. Antitumor activity per RECIST v1.1 was assessed in all evaluable patients. Patients were considered response evaluable if they had measurable disease at baseline per RECIST v1.1 and had ≥1 post‐baseline tumor assessment, unless treatment had been discontinued due to clinical progression or death prior to tumor assessment. The population evaluable for CA‐125 response included patients in the safety population with baseline CA‐125 ≥2 x upper limit of normal.
compound,measurement,setting,value
"C[C@]12CCCN1CC1=NNC(=O)c3cc(F)cc4[nH]c2c1c34 [pamiparib, Pamiparib]","Treatment-related adverse event Asthenia, All Grades",20 mg BID (n = 4),3 (75.0) n (%)
same,"Treatment-related adverse event Asthenia, Grade ≥3",20 mg BID (n = 4),0 n (%)
same,"Treatment-related adverse event Decreased appetite, All Grades",20 mg BID (n = 4),3 (75.0) n (%)
same,"Treatment-related adverse event Decreased appetite, Grade ≥3",20 mg BID (n = 4),0 n (%)
same,"Treatment-related adverse event Decreased hemoglobin, All Grades",20 mg BID (n = 4),0 n (%)
same,"Treatment-related adverse event Decreased hemoglobin, Grade ≥3",20 mg BID (n = 4),0 n (%)
same,"Treatment-related adverse event Decreased neutrophil count, All Grades",20 mg BID (n = 4),1 (25.0) n (%)
same,"Treatment-related adverse event Decreased neutrophil count, Grade ≥3",20 mg BID (n = 4),0 n (%)
same,"Treatment-related adverse event Decreased platelet count, All Grades",20 mg BID (n = 4),0 n (%)
same,"Treatment-related adverse event Decreased platelet count, Grade ≥3",20 mg BID (n = 4),0 n (%)
same,"Treatment-related adverse event Decreased white blood cell count, All Grades",20 mg BID (n = 4),2 (50.0) n (%)
same,"Treatment-related adverse event Decreased white blood cell count, Grade ≥3",20 mg BID (n = 4),0 n (%)
same,"Treatment-related adverse event Diarrhea, All Grades",20 mg BID (n = 4),0 n (%)
same,"Treatment-related adverse event Diarrhea, Grade ≥3",20 mg BID (n = 4),0 n (%)
same,"Treatment-related adverse event Increased GGT, All Grades",20 mg BID (n = 4),1 (25.0) n (%)
same,"Treatment-related adverse event Increased GGT, Grade ≥3",20 mg BID (n = 4),0 n (%)
same,"Treatment-related adverse event Increased conjugated bilirubin, All Grades",20 mg BID (n = 4),1 (25.0) n (%)
same,"Treatment-related adverse event Increased conjugated bilirubin, Grade ≥3",20 mg BID (n = 4),0 n (%)
same,"Treatment-related adverse event Nausea, All Grades",20 mg BID (n = 4),4 (100.0) n (%)
same,"Treatment-related adverse event Nausea, Grade ≥3",20 mg BID (n = 4),0 n (%)
same,"Treatment-related adverse event Prolonged electrocardiogram QT, All Grades",20 mg BID (n = 4),1 (25.0) n (%)
same,"Treatment-related adverse event Prolonged electrocardiogram QT, Grade ≥3",20 mg BID (n = 4),1 (25.0) n (%)
same,"Treatment-related adverse event Somnolence, All Grades",20 mg BID (n = 4),1 (25.0) n (%)
same,"Treatment-related adverse event Somnolence, Grade ≥3",20 mg BID (n = 4),0 n (%)
same,"Treatment-related adverse event Tachycardia, All Grades",20 mg BID (n = 4),0 n (%)
same,"Treatment-related adverse event Tachycardia, Grade ≥3",20 mg BID (n = 4),0 n (%)
same,"Treatment-related adverse event Vomiting, All Grades",20 mg BID (n = 4),1 (25.0) n (%)
same,"Treatment-related adverse event Vomiting, Grade ≥3",20 mg BID (n = 4),0 n (%)
same,Discontinued treatment: Adverse event,20 mg BID (n=4),0
same,"Treatment-related adverse event Asthenia, All Grades",40 mg BID (n = 4),4 (100.0) n (%)
same,"Treatment-related adverse event Asthenia, Grade ≥3",40 mg BID (n = 4),0 n (%)
same,"Treatment-related adverse event Decreased appetite, All Grades",40 mg BID (n = 4),3 (75.0) n (%)
same,"Treatment-related adverse event Decreased appetite, Grade ≥3",40 mg BID (n = 4),0 n (%)
same,"Treatment-related adverse event Decreased hemoglobin, All Grades",40 mg BID (n = 4),1 (25.0) n (%)
same,"Treatment-related adverse event Decreased hemoglobin, Grade ≥3",40 mg BID (n = 4),0 n (%)
same,"Treatment-related adverse event Decreased neutrophil count, All Grades",40 mg BID (n = 4),3 (75.0) n (%)
same,"Treatment-related adverse event Decreased neutrophil count, Grade ≥3",40 mg BID (n = 4),0 n (%)
same,"Treatment-related adverse event Decreased platelet count, All Grades",40 mg BID (n = 4),0 n (%)
same,"Treatment-related adverse event Decreased platelet count, Grade ≥3",40 mg BID (n = 4),0 n (%)
same,"Treatment-related adverse event Decreased white blood cell count, All Grades",40 mg BID (n = 4),3 (75.0) n (%)
same,"Treatment-related adverse event Decreased white blood cell count, Grade ≥3",40 mg BID (n = 4),0 n (%)
same,"Treatment-related adverse event Diarrhea, All Grades",40 mg BID (n = 4),1 (25.0) n (%)
same,"Treatment-related adverse event Diarrhea, Grade ≥3",40 mg BID (n = 4),0 n (%)
same,"Treatment-related adverse event Increased GGT, All Grades",40 mg BID (n = 4),1 (25.0) n (%)
same,"Treatment-related adverse event Increased GGT, Grade ≥3",40 mg BID (n = 4),0 n (%)
same,"Treatment-related adverse event Increased conjugated bilirubin, All Grades",40 mg BID (n = 4),1 (25.0) n (%)
same,"Treatment-related adverse event Increased conjugated bilirubin, Grade ≥3",40 mg BID (n = 4),0 n (%)
same,"Treatment-related adverse event Nausea, All Grades",40 mg BID (n = 4),3 (75.0) n (%)
same,"Treatment-related adverse event Nausea, Grade ≥3",40 mg BID (n = 4),0 n (%)
same,"Treatment-related adverse event Prolonged electrocardiogram QT, All Grades",40 mg BID (n = 4),1 (25.0) n (%)
same,"Treatment-related adverse event Prolonged electrocardiogram QT, Grade ≥3",40 mg BID (n = 4),0 n (%)
same,"Treatment-related adverse event Somnolence, All Grades",40 mg BID (n = 4),1 (25.0) n (%)
same,"Treatment-related adverse event Somnolence, Grade ≥3",40 mg BID (n = 4),0 n (%)
same,"Treatment-related adverse event Tachycardia, All Grades",40 mg BID (n = 4),1 (25.0) n (%)
same,"Treatment-related adverse event Tachycardia, Grade ≥3",40 mg BID (n = 4),0 n (%)
same,"Treatment-related adverse event Vomiting, All Grades",40 mg BID (n = 4),1 (25.0) n (%)
same,"Treatment-related adverse event Vomiting, Grade ≥3",40 mg BID (n = 4),0 n (%)
same,Discontinued treatment: Adverse event,40 mg BID (n=4),0
same,"Treatment-related adverse event Asthenia, All Grades",60 mg BID (n = 7),5 (71.4) n (%)
same,"Treatment-related adverse event Asthenia, Grade ≥3",60 mg BID (n = 7),0 n (%)
same,"Treatment-related adverse event Decreased appetite, All Grades",60 mg BID (n = 7),3 (42.9) n (%)
same,"Treatment-related adverse event Decreased appetite, Grade ≥3",60 mg BID (n = 7),0 n (%)
same,"Treatment-related adverse event Decreased hemoglobin, All Grades",60 mg BID (n = 7),5 (71.4) n (%)
same,"Treatment-related adverse event Decreased hemoglobin, Grade ≥3",60 mg BID (n = 7),3 (42.9) n (%)
same,"Treatment-related adverse event Decreased neutrophil count, All Grades",60 mg BID (n = 7),4 (57.1) n (%)
same,"Treatment-related adverse event Decreased neutrophil count, Grade ≥3",60 mg BID (n = 7),2 (28.6) n (%)
same,"Treatment-related adverse event Decreased platelet count, All Grades",60 mg BID (n = 7),3 (42.9) n (%)
same,"Treatment-related adverse event Decreased platelet count, Grade ≥3",60 mg BID (n = 7),1 (14.3) n (%)
same,"Treatment-related adverse event Decreased white blood cell count, All Grades",60 mg BID (n = 7),5 (71.4) n (%)
